Results published in patent US12053736B2, “Process for regenerating a liquid absorbent” (COMMONWEALTH SCIENTIFIC AND INDUSTRIAL RESEARCH ORGANISATION, priority 2019, dated 2024).
Read-outs that look alike come from different tables or passages of the source.

Tests used:
[1] = Accelerated oxidative degradation of benzylamine (CO2/O2, 55° C., 13C-NMR); assay type: physicochemical; settings: 1 mol/L, CO2 (1 bar) and O2 (9 bar), 10 days, relative 13C-NMR peak areas
Experimental: A solution of 10 mL of 1 mol/L BZA was placed in a Fischer-Porter vessel. […] Based on relative peak areas approximately 41% of the BZA had been converted to imine.

[2] = Accelerated oxidative degradation of diethanolamine solutions with sacrificial amine (CO2/O2, 55° C., 13C-NMR); settings: 5.9 mol/L DEA and 0.1 mol/L additive, CO2 (1 bar), O2 (9 bar), 115 hours
Experimental: The effect of 3-aminomethylpyridine (3-AMPy) and benzylamine (BZA) on the degradation of DEA was investigated using accelerated degradation conditions designed to simulate longer-term degradation in a gas capture process. DEA solutions were thus prepared as follows: i) 6 mol/L DEA; ii) 5.9 mol/L DEA and 0.1 mol/L BZA; and iii) 5.9 mol/L DEA and 0.1 mol/L 3-AMPy. Each solution (10 ml) was placed in a Fischer-Porter vessel. The vessels were sealed and the remaining headspace of the vessels was filled with CO2 (1 bar) and O2 (9 bar). The liquid phase in the vessels was stirred via magnetic stirring bars and heated to 55° C. by immersion in a water bath for 115 hours.
Samples were then taken and analysed by ^13C-NMR spectroscopy (Bruker Avance 400).

[3] = conjugate acid pKa, cited from earlier work
[4] = Extraction of imine dimer into organic solvents (liquid-liquid partition, GC-MS, 13C NMR); assay type: physicochemical
Experimental: (§1) A sample of the aqueous absorbent, which had initially contained 3 mol/L 3-AMPy and 3 mol/L 2-amino-2-methyl-1-propanol (AMP), was taken after 3800 hours (c.a. 158 days) of operation in the pilot plant campaign described in Example 2. Despite the improved stability of the solution as a result of the AMP, it is evident from FIG. 3 that imine dimer degradation product was present in significant quantities (c.a. 0.2 mol/litre) by this time.
Equal volumes of the sample and dichloromethane were vigorously shaken in a separating funnel and allowed to undergo phase separation. The two phases were then collected and separately analysed by GC-MS. FIGS. 4 and 5 depict gas chromatographs of the organic and aqueous phases respectively, with the peaks identified by mass spectrometry via comparison against libraries of reference spectra.
Samples of the same aqueous absorbent were also extracted with equal volumes of toluene or ethyl acetate. The organic phases after extraction with dichloromethane, toluene and ethyl acetate were analysed by ^13C NMR.

[5] = Hydrolysis of imine dimer under acidic aqueous conditions; assay type: physicochemical; settings: acetic acid and water with DCM solution, room temperature, 24 hours
From the text: The imine of Formula (II) is found to be unstable in acidic aqueous conditions. For the case where the degradation product is extracted from the liquid absorbent into an organic solvent, hydrolysis may thus be achieved by contacting the separated organic phase with an acidified aqueous phase, for example containing a catalytic amount of acetic acid. After suitable mixing and time for hydrolysis, the two phases are separated by conventional liquid-liquid separation techniques, with the regenerated amine of Formula (I) partitioned into the aqueous phase and the less polar aldehyde of Formula (III) remaining in the organic phase. The aqueous phase, now containing a first portion of regenerated amine of Formula (I), may then be recycled to the gas absorption process. It will be appreciated that a theoretical maximum of 50 mol % of the degraded amine may be recovered by this process step, since each molecule of imine incorporates two amine molecules.
A sample of the aqueous absorbent, which had initially contained 3 mol/L 3-AMPy and 3 mol/L 2-amino-2-methyl-1-propanol (AMP) and was taken after c.a. 3800 hours (c.a. 158 days) of operation in the pilot plant campaign described in Example 2. The sample was shaken with an equal volume of dichloromethane (DCM) in a separating funnel for 1 minute. The phases were then allowed to separate and each phase was collected separately. […]

[6] = Viscosity of absorbent (Anton Parr LOVIS 2000 ME, 40° C.); assay type: physicochemical; settings: imine added to fresh absorbent
Experimental: Another sample of the aqueous absorbent, which had initially contained 3 mol/L 3-AMPy and 3 mol/L 2-amino-2-methyl-1-propanol (AMP) and was taken after c.a. 5000 hours (c.a. 208 days) of operation in the pilot plant campaign described in Example 2, was extracted with dichloromethane as described in Example 5. As a result of the extraction, the viscosity of the sample was reduced from 9.9 mPa·s to 6.0 mPa·s (measured at 40° C. using an Anton Parr LOVIS 2000 ME instrument). By comparison, the viscosity of the fresh, CO2 free absorbent was 4.7 mPa·s. The effect of the viscosity reduction is to improve the performance of the absorbent in the plant through better flow properties and reduced mass transfer resistance.
The synthesised imine (structure confirmed by IR spectroscopy) was added to fresh absorbent and the impact on viscosity measured (measured at 40° C. using an Anton Parr LOVIS 2000 ME).

[7] = Extraction of imine dimer by solid absorption on Amberlite XAD-2; assay type: physicochemical; settings: Amberlite XAD-2, stirred 2 hours, 13C NMR
Experimental: as §1, with “5000” for “3800”, “208” for “158”, “AMP,” for “AMP, it is evident from FIG. 3 that”, “0.35” for “0.2”
Amberlite XAD-2, a hydrophobic crosslinked polystyrene copolymer resin, was washed 3 times in deionized water followed by washing 3 times in dichloromethane (DCM). The cleaned beads were mixed with the absorbent sample that had been exposed to 5000 hours of flue gas. The mixture was stirred for 2 hours to allow the hydrophobic components to adhere to the polymer resin. The mixture was filtered to remove the water soluble portion of the degraded amine absorbent. The beads were washed with water and this water added to the filtrate. The beads were then washed with 3 portions of DCM, and the collected DCM was partially evaporated.
Very little amine was extracted into the beads and carried over to the DCM wash, as evidenced by the lack of peaks near 42 ppm (these peaks are present in the sample and aqueous filtrate spectra). […]

SMILES | pKa at 25° C. ([3]; table in description) | pKa at 25° C. ([3]; table of Example 4) | further results
NCc1ccccc1 [BZA, benzylamine] |  |  | amine converted to imine [1]: approximately 41%
NCc1cccnc1 [3-(aminomethyl)pyridine] |  |  | DEA degradation (13C-NMR peak at 67 ppm) in presence of sacrificial amine [2]: this degradation has not occurred
CC(N)CO (stereo not drawn) [2-amino-1-propanol] | 9.5 | 9.5 | 
C(=NCc1cccnc1)c1cccnc1 [imine dimer] |  |  | extraction into organic phase ([4]; dichloromethane, toluene or ethyl acetate, equal volumes, 13C NMR): successful and selective extraction; phase distribution after extraction ([4]; equal volumes of used absorbent sample and dichloromethane, GC-MS): almost exclusively present in the organic phase; stability under acidic aqueous conditions [5]: unstable; impact on viscosity of fresh absorbent [6]: increased with the concentration of synthetic imine added; extraction by hydrophobic resin beads [7]: majority of the imine was extracted
NCCS(=O)(=O)[O-].[K+] [potassium taurate] | 9.1 | 9.1 | 
OCC1CCNCC1 [4-piperidinylmethanol] |  | 10.6 | 
OCC1CCCCN1 (stereo not drawn) [2-piperidinylmethanol] |  | 10.1 | 
NCC(=O)[O-].[Na+] [sodium glycinate] | 9.6 | 9.6 | 
